These results are taken from US20040072907A1, “Antipicornaviral compounds, compositions containing them, and methods for their use” (priority 1997, published 2004).

Like-named read-outs stand apart in the source and are kept apart here.

In series [1] the target is T1, Recombinant Rhinovirus 3C protease serotype 14 (Human rhinovirus 14, UniProt P03303).
T1 construct: Recombinant Rhinovirus 3C proteases from serotypes 14, 16, and 2; made in house
The series is described as follows: biochemical. The note with it: RVP serotype-14; progress curves, enzyme start experiments; read-out: kobs/I.
Procedure: Stock solutions (50 mM, in DMSO) of various compounds were prepared; dilutions were in the same solvent. […] Assays contained 2% DMSO, 50 mM tris pH 7.6, 1 mM EDTA, a compound at the indicated concentrations, approximately 1 μM substrate, and 50-100 nM protease. […] The kobs/I values were obtained from reactions initiated by addition of enzyme rather than substrate. RVP activity is measured in the fluorescence resonance energy transfer assay. […] In the uncleavaed peptide, the EDANS fluorescence was quenched by the proximal DABCYL moiety. When the peptide was cleaved, the quenching was relieved, and activity was measured as an increase in fluorescence signal.
The data in the column designated kobs/I was measured from progress curves enzyme start experiments.

The next series deals with HRV serotype-14. Nature of the series: Antirhinoviral HI-HeLa cell culture assay (XTT cell protection), HRV-14. The class given is cell-based, human rhinovirus. On the procedure:
(§1) In the Cell Protection Assay, the ability of compounds to protect cells against HRV infection was measured by the XTT dye reduction method. This method is described in Weislow, O. S., Kiser, R., Fine, D. L., Bader, J., Shoemaker, R. H., Boyd, M. R., J. Natl. Cancer Inst. 1989, 81, 577-586, the disclosure of which is incorporated herein by reference.
(§2) Infected or mock-infected cells were resuspended at 8×10^5 cells per mL and incubated with appropriate concentrations of compounds of formula I. Two days later, XTT/PMS was added to test plates, and the amount of formazan produced was quantified spectrophotometrically at 450/650 nm. […] The therapeutic index (TI) was calculated by dividing the CC50 by the EC50.
(§3) All strains of human rhinovirus (HRV) for use in this assay were purchased from American Type Culture Collection (ATCC) except for HRV serotype-14, which was produced from the infectious cDNA clone constructed and supplied to Applicants by Dr. Robert Rueckert at the Institute for Molecular Virology, University of Wisconsin, Madison, Wis. HRV stocks were propagated, and viral assays were performed in HI-HeLa cells (ATCC). Cells were grown in Minimal Essential Medium, available from Life Technologies, with 10% fetal bovine serum.
(§4) The compounds were tested against control compounds WIN 51711, WIN 52084, and WIN 54954, all obtained from Sterling-Winthrop Pharmaceuticals, and control compound Pirodavir, obtained from Janssen Pharmaceuticals. Antiviral data obtained for the test compounds are shown in Table 2 where all data are for HRV serotype-14 unless otherwise noted in parentheses.

The nature of series [2]: Cytotoxicity in mock-infected HI-HeLa cells (XTT, antirhinoviral assay). Format: cell-based. The note with it: human; mock-infected HI-HeLa cells; line for HRV serotype-14. How it is done: as §1, §2
(§5) HRV stocks were propagated, and viral assays were performed in HI-HeLa cells (ATCC). Cells were grown in Minimal Essential Medium, available from Life Technologies, with 10% fetal bovine serum.

Series [3] has as its system HI-HeLa cells. The description is as above. Format: cell-based. Particulars: mock-infected HI-HeLa cells, read-out: CC50. How it is done: as §1, §2, §5
Series [4] has as its system HI-HeLa cells. The series is described as follows: Cytotoxicity in uninfected HI-HeLa cells (XTT, anticoxsackieviral assay). Format: cell-based. Particulars: one day. How it is done:
(§6) The Coxsackie strain A-21 (CVA-21) was purchased from American Type Culture Collection (ATCC). Virus stocks were propagated, and antiviral assays were performed in HI-HeLa cells (ATCC). Cells were grown in Minimal Essential Medium with 10% fetal bovine serum.
(§7) The ability of compounds to protect cells against CVA-21 infection was measured by the XTT dye reduction method. This method is described in Weislow, O. S., Kiser, R., Fine, D. L., Bader, J., Shoemaker, R. H., Boyd, M. R., J. Natl. Cancer Inst. 1989, 81, 577-586, the disclosure of which is incorporated herein by reference. HI-HeLa cells were infected with CVA-21 at a multiplicity of infection (m.o.i.) of 0.05 (CVA-21) or mock-infected with medium only. Infected or uninfected cells were resuspended at 4×10^4 cells per mL and incubated with appropriate concentrations of drug. One day later, XTT/PMS was added to test plates, and the amount of formazan produced was quantified spectrophotometrically at 450/650 nm. […] The therapeutic index (TI) was calculated by dividing the CC50 by the EC50.

The subject of another series is HRV serotype 2. Nature of the series: Antirhinoviral HI-HeLa cell culture assay (XTT cell protection), HRV-2. The class given is cell-based, human rhinovirus. Particulars: HRV serotype 2, HI-HeLa cells. How it is done: as §1, §2, §3, §4
For another series, the system named is HRV serotype 89. The series is described as follows: Antirhinoviral HI-HeLa cell culture assay (XTT cell protection), HRV-89. The class given is cell-based, human rhinovirus. The note with it: HRV serotype 89, HI-HeLa cells. On the procedure: as §1, §2, §3, §4
The subject of the next series is HRV serotype 39. Nature of the series: Antirhinoviral HI-HeLa cell culture assay (XTT cell protection), HRV-39. Particulars: HRV serotype 39, HI-HeLa cells. The class given is cell-based, human rhinovirus. On the procedure:
as §1, §2, §3, §4

The next series relates to HRV serotype 16. The series is described as follows: Antirhinoviral HI-HeLa cell culture assay (XTT cell protection), HRV-16. The note with it: HRV serotype 16, HI-HeLa cells. The class given is cell-based, human rhinovirus. How it is done:
as §1, §2, §3, §4

A further series deals with HRV serotype 1A. Nature of the series: Antirhinoviral HI-HeLa cell culture assay (XTT cell protection), HRV-1A. The class given is cell-based, human rhinovirus. The note with it: HI-HeLa cells. On the procedure: as §1, §2, §3, §4
For series [5], the system named is Coxsackie strain A-21 (CVA-21). Nature of the series: Anticoxsackieviral HI-HeLa cell culture assay (XTT cell protection). Format: cell-based. The note with it: CVA-21, HI-HeLa cells, m.o.i. 0.05, one day. On the procedure:
as §6
as §7, with “HI-HeLa cells were infected with CVA-21 at a multiplicity of infection (m.o.i.) of 0.05 (CVA-21) or mock-infected with medium only.” left out
The compounds were tested against control compound WIN 54954, obtained from Sterling-Winthrop Pharmaceuticals, and control compound Pirodavir, obtained from Janssen Pharmaceuticals.

Series [6] can be described thus: Cytotoxicity in uninfected HI-HeLa cells (XTT, anticoxsackieviral assay). Format: cell-based. Particulars: human, one day. How it is done: as §6, §7
The mark [7] stands for this setting: HRV serotype-14, HI-HeLa cells, m.o.i. 0.13, two days, XTT, read-out: EC50.

T1 sequence (P03303 1538-1719): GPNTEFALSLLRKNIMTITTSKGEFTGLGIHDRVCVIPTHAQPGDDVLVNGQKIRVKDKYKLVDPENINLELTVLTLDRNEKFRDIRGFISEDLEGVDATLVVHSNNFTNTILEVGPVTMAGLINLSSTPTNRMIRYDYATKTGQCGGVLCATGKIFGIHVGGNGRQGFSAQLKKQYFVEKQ

On to `CC(C)CC(NC(=O)SCc1ccccc1)C(=O)CC(Cc1ccccc1)C(=O)NC(C=CC(=O)N1CCc2ccccc21)CCC(N)=O` [Compound 3, (2,3-Dihydroindole)-3-(BnSCO-L-LeuΨ[COCH2]-L-Phe-L-Gln)-E-Propenamide], for which the kinact/KI in series [1] worked out at 29200 M⁻¹ s⁻¹. Moreover, in the series on HRV serotype-14 (Human rhinovirus sp., 48 h), the midpoint of the response, the EC50, lay at 1900 nM. In series [2], this molecule had a CC50 at 2 days of 50100 nM.

Regarding `CCOC(=O)/C=C/C(CCC(N)=O)NC(=O)C(CC(=O)C(NC(=O)SC1CCCC1)C(C)C)Cc1ccccc1` [Compound 7, Ethyl-3-(CyPentylSCO-L-ValΨ[COCH2]-L-Phe-L-Gln)-E-Propenoate], the cytotoxic concentration (CC50) in the series on HI-HeLa cells [3] (line for HRV serotype 2), with HI-HeLa cells [3] (line for HRV serotype 10), in the series with HI-HeLa cells [3] (line for HRV serotype 39), in the series with HI-HeLa cells [3] (line for HRV serotype 89) and in the series on HI-HeLa cells [4] was above 10000 nM each time.

With `CCOC(=O)/C=C/C(CCC(N)=O)NC(=O)C(CC(=O)C(NC(=O)OC1CCCC1)C(C)C)Cc1ccc(C)cc1` (centres unmarked) [Compound 20], the EC50 worked out at 42 nM in the series on HRV serotype-14 (setting [7]); 560 nM in the series on HRV serotype 2; 470 nM in the series on HRV serotype 89; 1200 nM with HRV serotype 39; 150 nM in the series on HRV serotype 16; 530 nM in the series on HRV serotype 1A. Also, the CC50 in the series on HI-HeLa cells [3] (line for HRV serotype 1A), with HI-HeLa cells [3] (line for HRV serotype 2), in the series on HI-HeLa cells [3] (line for HRV serotype 10), with HI-HeLa cells [3] (line for HRV serotype 16), in the series with HI-HeLa cells [3] (line for HRV serotype 39) and in the series with HI-HeLa cells [3] (line for HRV serotype 89) was above 3000 nM each time. Moreover, the half-maximal cytotoxic concentration (CC50) in the series with HI-HeLa cells [3] (line for HRV serotype-14) was above 3000 nM.

As to `CCOC(=O)c1ccc(OCCC2CCN(c3ccc(C)nn3)CC2)cc1` [Pirodavir, reference compound], the EC50 with HRV serotype-14 (Human rhinovirus sp., 48 h, HRV serotype-14, HI-HeLa cells, m.o.i. 0.13, two days, XTT, read-out: EC50) was 30 nM; in [5] (24 h), above 100000 nM. Moreover, the cytotoxic concentration (CC50) at 2 days in [2] is above 10000 nM. Moreover, in series [6], the cytotoxic concentration (CC50) at 1 day was above 100000 nM.

With `Cc1cc(CCCCCOc2c(Cl)cc(C3=NCCO3)cc2Cl)on1` [WIN 54954, reference compound], the EC50 was 2130 nM with HRV serotype-14 (setting [7]) and above 100000 nM in [5]. For the same molecule, the cytotoxic concentration (CC50) was above 63000 nM with HI-HeLa cells [3] (line for HRV serotype-14) and above 100000 nM in the series with HI-HeLa cells [4].
